Source: PubChem BioAssay (NCI)
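A five-concentration, 48-hour dose response in 96-well plates underlies each endpoint, interpolated linearly between surrounding concentrations. The concentration for 50% growth inhibition is given as GI50. TGI denotes the concentration required for complete inhibition of growth.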

How the values were obtained:
Assay in all cases: NCI tumour cell line growth inhibition, 48 h
[1] = system: NCI-H226 lung
[2] = system: SK-MEL-28 melanoma
[3] = system: RXF 393 renal
[4] = system: OVCAR-4 ovarian
[5] = system: COLO 205 colon
[6] = system: TK-10 renal
[7] = system: M14 melanoma
[8] = system: SR leukemia
[9] = system: T-47D breast
[10] = system: PC-3 prostate

In the case of `C=CCNC(=O)N(CCCCC(NC(C)=O)C(=O)NCc1ccccc1)Cc1ccccc1` (stereo not drawn), the TGI [1] is reported as > 100 µM, the TGI [2] is reported as > 100 µM and the TGI [3] is reported as > 100 µM. The TGI [4] was > 100 µM, the TGI [5] was > 100 µM and the TGI [6] was > 100 µM. The TGI [7] was > 100 µM.
In the case of `O=C(O)C1=C(O)C(C(=O)O)C23CCCCCCCCCCC12C(C(=O)O)C(O)=C3C(=O)O` (stereo not drawn), the TGI [1] is reported as > 100 µM, the TGI [2] is reported as > 100 µM and the TGI [8] is reported as > 100 µM. For the same molecule, the TGI [3] was > 100 µM, the TGI [5] was > 100 µM and the TGI [6] was > 100 µM. The TGI [7] was > 100 µM.
With `COC(=O)CC1C[C@H](C#N)N(C(=O)c2ccccc2)C[C@@H]1CC[N+](=O)[O-]` (stereo partly drawn) the TGI [2] was > 100 µM, the TGI [8] was > 100 µM and the TGI [3] was > 100 µM. For the same molecule, the TGI [4] was > 100 µM, the TGI [5] was > 100 µM and the TGI [6] was > 100 µM. For the same molecule, the TGI [7] was > 100 µM.
Molecule `CCN(CC)c1c(C(=O)/C=C/c2ccc(Cl)cc2)c(-c2ccccc2)nn(C)c1=O` has a TGI [1] of 4.4 µM, a TGI [2] of 3.02 µM and a TGI [3] of 2.8 µM. It also gave a TGI [4] of 3.27 µM, a TGI [5] of 4.01 µM and a TGI [6] of 4 µM. It also gave a TGI [7] of 4.01 µM.
With `C/C=C(\C)C(=O)NC1=CC[C@@]2(C)C(=CCC3C2CC[C@@]2(C)C3CC[C@@H]2C(C)N(C)C)C1=O` (stereo partly drawn) the GI50 [1] was 4.65 µM, the TGI [1] was 36.3 µM and the GI50 [9] was 1.94 µM. It also gave a TGI [9] of 25.7 µM, a GI50 [2] of 1.72 µM and a TGI [2] of 3.24 µM. For the same molecule, the GI50 [3] was 1.56 µM, the TGI [3] was 4.53 µM and the GI50 [4] was 4.58 µM. The TGI [4] was > 50.2 µM, the GI50 [5] was 1.72 µM and the TGI [5] was 3.45 µM. It also gave a GI50 [6] of 12.3 µM, a TGI [6] of 32.4 µM and a GI50 [10] of 2.5 µM. The TGI [10] was 17.7 µM, the GI50 [7] was 1.81 µM and the TGI [7] was 3.44 µM.
`O=[N+]([O-])c1ccc(C[P+](c2ccccc2)(c2ccccc2)c2ccccc2)cc1` was tested, and the TGI [1] was > 100 µM, the TGI [2] was > 100 µM and the TGI [8] was > 100 µM. For the same molecule, the TGI [3] was > 100 µM, the TGI [5] was > 100 µM and the TGI [6] was > 100 µM. The TGI [7] was > 100 µM.
For `CCOC(=O)/C(C=Nc1ccc(-c2nc3ccccc3[nH]2)cc1)=C(/C)O`, the GI50 [9] was 10.3 µM, the TGI [9] was 35.4 µM and the GI50 [5] was 10.7 µM. For the same molecule, the TGI [5] was 33.4 µM, the GI50 [6] was 25.4 µM and the TGI [6] was > 50 µM. The GI50 [10] was 27.2 µM, the TGI [10] was > 50 µM and the GI50 [7] was 12.7 µM. It also gave a TGI [7] of 32 µM.
For `OC(Cc1ccncc1)C(Cl)(Cl)Cl` (stereo not drawn), the GI50 [1] was > 100 µM, the TGI [1] was > 100 µM and the GI50 [9] was > 100 µM. For the same molecule, the TGI [9] was > 100 µM, the GI50 [2] was > 100 µM and the TGI [2] was > 100 µM. The GI50 [3] was > 100 µM, the TGI [3] was > 100 µM and the GI50 [4] was > 100 µM. For the same molecule, the TGI [4] was > 100 µM, the GI50 [5] was > 100 µM and the TGI [5] was > 100 µM. For the same molecule, the GI50 [6] was > 100 µM, the TGI [6] was > 100 µM and the GI50 [10] was 21.8 µM. For the same molecule, the TGI [10] was > 100 µM, the GI50 [7] was > 100 µM and the TGI [7] was > 100 µM.
Work on `Cc1cccc(/C=C/c2c(C(=O)/C=C/c3ccccc3)c(C)nc3ccccc23)c1` yielded a GI50 [1] of 1.73 µM, a TGI [1] of 3.82 µM and a GI50 [9] of 1.29 µM. For the same molecule, the TGI [9] was 3.66 µM, the GI50 [2] was 1.81 µM and the TGI [2] was 3.28 µM. For the same molecule, the GI50 [8] was 0.982 µM, the TGI [8] was 4.94 µM and the GI50 [3] was 1.51 µM. The TGI [3] was 2.86 µM, the GI50 [5] was 1.81 µM and the TGI [5] was 4.34 µM.
`CCOC(=O)C12CCCC1(O)N(NC(=O)OC(C)(C)C)C(C)=C2C(=O)OC` (stereo not drawn) was tested, and the TGI [1] was > 100 µM, the TGI [4] was > 100 µM and the TGI [5] was > 100 µM. For the same molecule, the TGI [6] was > 100 µM and the TGI [7] was > 100 µM.
